The source of these data is US20200261576A1, “APOPTOTIC CELL-MEDIATED INDUCTION OF ANTIGEN SPECIFIC REGULATORY T-CELLS FOR THE THERAPY OF AUTOIMMUNE DISEASES IN ANIMALS AND HUMANS” (The United States of America, as represented by the …, priority 2013, published 2020).

For one assay, the system named is splenocytes. Kind of assay: Antigen-recall T cell proliferation and cytokine production of splenocytes from SJL EAE mice. It is filed as cell-based. The following applies: therapy model; splenocytes restimulated with pPLP. The procedure:
Cytokine assays. Splenocytes were cultured at 37° C. in 5% CO2 for 2-3 days with either soluble CD3-specific antibody (anti-CD3) (0.5 μg/ml) or MT (heat-killed M. tuberculosis, H37RA, DIFCO) (50 μg/ml) or peptides (pMOG, pPLP) (0-50 μg/ml as indicated). Cytokines were quantified in culture supernatants by ELISA; TNF-α, IL-6, and IFN-γ (BioLegend) and IL-17 (eBioscience). EAE induction, scoring, analysis and in vitro cell cultures. Peptide-induced EAE was induced in SJL mice and C57BL/6 mice as previously reported^11,20. Individual mice were observed daily and clinical scores were assessed on a 0-5 scale as follows: 0, no abnormality; 1, limp tail or hind limb weakness; 2, limp tail and hind limb weakness; 3, hind limb paralysis; 4, hind limb paralysis and forelimb weakness; and 5, moribund. […] Radioactive incorporation was counted using a flatbed β-counter (Wallac). […]

In another assay the test system is SJL mice. Kind of assay: Prevention of EAE in SJL mice (treatment before immunization). It is filed as in vivo. The procedure: Antibodies used for in vivo. Anti-CD4 (clone Gk1.5), anti-CD8 antibody (clone 53-6.72), anti-TGFβ antibody (clone ID11) and mouse IgG1 (clone MOPC-21) were purchased from Bio X cell. Anti-CD20 antibody (clone 5D2) was a gift from Genentech. T cell depletion studies in EAE disease models. For EAE prevention studies SJL/J mice were either untreated or treated with CD4− (100 μg/mouse) and CD8− (50 μg/mouse) specific antibody (T cell depletion antibody). Some mice were immediately injected i.p. with pPLP or pOVA (25 μg/mouse) or PBS every other day for 16 days. All mice were immunized with pPLP and CFA (day 0). For EAE treatment studies, SJL mice were treated with CD4- and CD8-specific antibody and 5 μg of pPLP, pOVA or PBS i.p. every other day from day 12 to day 26 following immunization with pPLP (day 0). For EAE prevention studies, SJL mice were treated with CD4- and CD8-specific antibody at day −21, and 25 μg of pPLP, pOVA or PBS i.p. every other day from day −18 to day −2 before immunization with pPLP (day 0). In C57BL/6 mice, same T cell depletion regimen was utilized but pMOG (10 μg mouse) was administered via i.p. In some mice, anti-TGFβ or isotype control antibody (mIgG1) (200 μg/mice each day) were injected i.p. one day after T cell depletion. […] Mice were monitored for clinical score of disease and sacrificed at indicated time points. […]

Regarding “proteolipid protein peptide PLP139-151 (HSLGKWLGHPDKF; listed as Mus musculus)”, in the assay on splenocytes, the “pPLP-specific T cell proliferation and inflammatory cytokine production” value is “no reduction”. Further, the “EAE clinical disease, prevention” value in the assay on SJL mice is reported as “failed to prevent EAE”.
